Data as given in PubChem BioAssay (NCI).
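Cells were grown in 96-well plates and exposed to each compound for 48 hours at five concentrations; endpoints were interpolated linearly between bracketing concentrations, or set to the highest concentration if not reached. Abbreviation: GI50, concentration required for 50% inhibition of growth. TGI marks complete inhibition of growth.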

Legend:
Assay in all cases: NCI anticancer screen, dose series, 48 h
HT29 colon = system: HT29 colon
KM12 colon = system: KM12 colon
MDA-MB-231 breast = system: MDA-MB-231 breast
MOLT-4 leukemia = system: MOLT-4 leukemia
NCI/ADR-RES ovarian = system: NCI/ADR-RES ovarian
OVCAR-4 ovarian = system: OVCAR-4 ovarian
PC-3 prostate = system: PC-3 prostate
SK-OV-3 ovarian = system: SK-OV-3 ovarian
SN12C renal = system: SN12C renal
SR leukemia = system: SR leukemia

Structure (SMILES) | GI50 (HT29 colon) [µM] | TGI (HT29 colon) [µM] | GI50 (KM12 colon) [µM] | TGI (KM12 colon) [µM] | GI50 (MDA-MB-231 breast) [µM] | TGI (MDA-MB-231 breast) [µM] | GI50 (MOLT-4 leukemia) [µM] | TGI (MOLT-4 leukemia) [µM] | GI50 (NCI/ADR-RES ovarian) [µM] | TGI (NCI/ADR-RES ovarian) [µM] | GI50 (OVCAR-4 ovarian) [µM] | TGI (OVCAR-4 ovarian) [µM] | GI50 (PC-3 prostate) [µM] | TGI (PC-3 prostate) [µM] | GI50 (SK-OV-3 ovarian) [µM] | TGI (SK-OV-3 ovarian) [µM] | GI50 (SN12C renal) [µM] | TGI (SN12C renal) [µM] | GI50 (SR leukemia) [µM] | TGI (SR leukemia) [µM]
c1ccc(Sc2ncnc3ccccc23)cc1 | 19.3 | 44.7 | 13.2 | 28.2 | 13.5 | 49.9 | 4.98 | 36 | 11.8 | 35 | 8.05 | > 100 | 12.3 | 60 | 22.1 | 49.6 | 10.8 | 27.4 | 4.78 | 53.1
O=C1CCC2(c3ccc(Cl)cc3)Nc3ccncc3N12 (stereo not given) | – | > 10 | – | > 10 | – | > 10 | – | > 10 | – | > 10 | – | > 10 | – | > 10 | – | > 10 | – | > 10 | – | > 10
O=S(=O)(c1ccccc1)c1cccc2c1NCCC2 | – | > 100 | – | > 100 | – | > 100 | – | > 100 | – | > 100 | – | > 100 | – | > 100 | – | > 10 | – | > 100 | – | > 100
COc1ccc(-c2cn[nH]c2-c2cc(OC)c(OC)c(OC)c2)cc1 | 0.0258 | 0.336 | 0.0252 | 12 | 0.055 | 33.1 | 0.0457 | 4.21 | 0.0305 | 40.2 | 0.511 | 46.9 | 0.0309 | 59.8 | 0.0293 | 9.12 | 0.193 | 47.3 | 0.0177 | 13.9
Nc1n[nH]c2cc(F)c([C@@H]3Nc4ccc5[nH]ncc5c4[C@H]4C5CCC(C5)[C@@H]34)cc12 (stereo not given in full) | 0.182 | > 50 | 0.18 | 4.01 | 0.2 | 7.86 | 0.207 | > 50 | 0.159 | 0.746 | 0.327 | > 50 | 0.238 | 18.7 | 0.359 | > 32.1 | 0.228 | 37.1 | 0.125 | > 50
COC[C@H]1Cn2cc(-c3nc(Nc4ccnn4C)ncc3C)nc2C(=O)N1Cc1ccc(F)c(F)c1 | 0.0436 | > 100 | 0.586 | > 100 | 0.678 | > 78.6 | 23.9 | > 100 | > 100 | > 100 | 17.8 | > 100 | > 100 | > 100 | 35.9 | > 100 | 11.1 | > 100 | > 100 | > 100
COc1ccc2nc3cc(Cl)ccc3c(NCCNCC(C)O)c2c1 (stereo not given) | 0.691 | 3.03 | 2.02 | 8.74 | 1.49 | 4.28 | 0.512 | 11.1 | 3.08 | 14 | 1.57 | 4.8 | 2.33 | 5.86 | 2.58 | 9.75 | 1.85 | 7.4 | 1.09 | 8.04
O=C(O)c1ccc2c(c1C(=O)O)C(=O)OC2(c1ccc(O)cc1)c1ccc(O)cc1 | – | > 100 | – | > 100 | – | > 100 | – | > 100 | – | > 100 | – | > 100 | – | > 100 | – | > 100 | – | > 100 | – | > 100
O=C(CCCSc1nc(-c2ccccc2)cc(-c2ccccc2)n1)NO | 2.46 | 12.2 | 2.64 | 12.9 | 1.99 | 7.72 | 1.1 | 10.2 | 0.305 | 10.5 | 1.67 | 14.9 | 1.72 | 13.6 | 1.94 | 5.57 | 1.94 | 9.1 | 0.38 | 20.5
Nc1n[nH]c2cccc(C#Cc3cccc(C(=O)Nc4ccc(CN5CCOCC5)c(C(F)(F)F)c4)c3)c12 | 1.89 | 12.2 | 2.81 | 9.65 | 1.3 | 4.7 | 1.4 | 4.24 | 3.07 | > 100 | 2.15 | 6.88 | 2.16 | 7.79 | 4 | 17.5 | 2.48 | 9.48 | 1.97 | > 100
